Reference: BindingDB's records for doi:10.1016/j.bmcl.2004.10.091 (Martin-Luther-University Halle-Wittenberg, 2005)

Target: Cyclin-dependent kinase 1/G2/mitotic-specific cyclin-B (Marthasterias glacialis, UniProt P15206+Q9DGD3)
Test: Kinase Inhibition Assay
Details: pH 7.2; 30 °C
Protocol: (§1) Kinase activities were assayed in buffers containing substrate, enzyme, and inhibitor at 30 °C in the presence of 15 uM ATP/ [gamma-32P] ATP. 32P incorporation was measured with a scintillation counter. The IC50 is the inhibitor concentration, which inhibits 50% of kinase activity that catalyzes the transfer of the terminal phosphate from 32P labeled ATP to the substrate.

Chain of Cyclin-dependent kinase 1/G2/mitotic-specific cyclin-B (Q9DGD3 whole entry): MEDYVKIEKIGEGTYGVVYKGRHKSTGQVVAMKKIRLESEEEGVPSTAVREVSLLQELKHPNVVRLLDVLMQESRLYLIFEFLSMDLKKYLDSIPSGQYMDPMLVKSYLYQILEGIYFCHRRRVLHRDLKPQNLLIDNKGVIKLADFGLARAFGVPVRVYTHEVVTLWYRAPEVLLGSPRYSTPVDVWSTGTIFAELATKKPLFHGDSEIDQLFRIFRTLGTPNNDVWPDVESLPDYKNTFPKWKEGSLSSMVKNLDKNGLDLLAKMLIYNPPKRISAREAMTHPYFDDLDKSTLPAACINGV
Chain of Cyclin-dependent kinase 1/G2/mitotic-specific cyclin-B (P15206 whole entry): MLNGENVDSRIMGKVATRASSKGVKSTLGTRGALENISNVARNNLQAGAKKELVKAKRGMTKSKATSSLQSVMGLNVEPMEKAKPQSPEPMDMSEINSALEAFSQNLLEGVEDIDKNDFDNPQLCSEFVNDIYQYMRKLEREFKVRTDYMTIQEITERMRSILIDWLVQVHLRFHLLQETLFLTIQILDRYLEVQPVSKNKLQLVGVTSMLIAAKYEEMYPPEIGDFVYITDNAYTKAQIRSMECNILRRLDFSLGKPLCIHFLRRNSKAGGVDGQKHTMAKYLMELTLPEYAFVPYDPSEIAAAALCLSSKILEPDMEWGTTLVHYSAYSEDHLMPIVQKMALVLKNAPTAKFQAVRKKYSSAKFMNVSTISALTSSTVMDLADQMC

Compound	IC50
Oc1ccc2oc3ncc(Cl)c(-c4ccccc4)c3c2c1 [4-chloro-3-phenyl-8-oxa-6-azatricyclo[7.4.0.0^{2,7}]trideca-1(13),2(7),3,5,9,11-hexaen-12-ol]	> 100 µM
CCOc1cnc2oc3ccc(O)cc3c2c1-c1ccccc1 [4-ethoxy-3-phenyl-8-oxa-6-azatricyclo[7.4.0.0^{2,7}]trideca-1(13),2(7),3,5,9,11-hexaen-12-ol]	> 100 µM
Cc1cnc2oc3ccc(O)cc3c2c1-c1ccccc1 [4-methyl-3-phenyl-8-oxa-6-azatricyclo[7.4.0.0^{2,7}]trideca-1(13),2(7),3,5,9,11-hexaen-12-ol]	> 100 µM

Target: Glycogen synthase kinase-3 beta (Rattus norvegicus, UniProt P18266)
Test: Kinase Inhibition Assay
Details: 30 °C
Protocol: as §1

Chain of Glycogen synthase kinase-3 beta (P18266 whole entry): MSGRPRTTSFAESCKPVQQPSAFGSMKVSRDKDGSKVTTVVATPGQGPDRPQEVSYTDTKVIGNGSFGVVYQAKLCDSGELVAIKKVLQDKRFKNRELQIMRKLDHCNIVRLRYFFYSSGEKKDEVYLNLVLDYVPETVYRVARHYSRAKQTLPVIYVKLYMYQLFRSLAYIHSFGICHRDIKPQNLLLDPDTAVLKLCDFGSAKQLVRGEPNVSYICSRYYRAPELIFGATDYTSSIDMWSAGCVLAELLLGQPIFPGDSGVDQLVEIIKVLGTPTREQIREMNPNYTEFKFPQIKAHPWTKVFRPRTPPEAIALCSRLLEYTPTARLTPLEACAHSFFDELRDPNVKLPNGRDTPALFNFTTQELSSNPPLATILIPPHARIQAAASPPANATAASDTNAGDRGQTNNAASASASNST

Compound	IC50
CC(C)c1cnn2c(Nc3ccc(S(=O)(=O)N(C)C)cc3)cc(NC3CCCC(N)C3)nc12 (centres undefined) [4-({5-[(3-aminocyclohexyl)amino]-3-(propan-2-yl)pyrazolo[1,5-a]pyrimidin-7-yl}amino)-N,N-dimethylbenzene-1-sulfonamide]	> 50 µM
CC(C)c1cnn2c(Nc3ccc(S(=O)(=O)N(C)C)cc3)cc(N[C@H]3CC[C@H](N)CC3)nc12 [4-({5-[(4-aminocyclohexyl)amino]-3-(propan-2-yl)pyrazolo[1,5-a]pyrimidin-7-yl}amino)-N,N-dimethylbenzene-1-sulfonamide]	40 µM
CN(C)S(=O)(=O)c1ccc(Nc2cc(N[C@H]3CC[C@H](N)CC3)nc3c(Br)cnn23)cc1 [4-({5-[(4-aminocyclohexyl)amino]-3-bromopyrazolo[1,5-a]pyrimidin-7-yl}amino)-N,N-dimethylbenzene-1-sulfonamide]	3.4 µM
CN(C)S(=O)(=O)c1ccc(Nc2cc(N[C@H]3CC[C@H](N)CC3)nc3c(C4CCCC4)cnn23)cc1 [4-({5-[(4-aminocyclohexyl)amino]-3-cyclopentylpyrazolo[1,5-a]pyrimidin-7-yl}amino)-N,N-dimethylbenzene-1-sulfonamide]	22 µM
CCN(CC)[C@H]1CC[C@H](Nc2cc(Nc3ccc(S(=O)(=O)N(C)C)cc3)n3ncc(C(C)C)c3n2)CC1 [4-[(5-{[4-(diethylamino)cyclohexyl]amino}-3-(propan-2-yl)pyrazolo[1,5-a]pyrimidin-7-yl)amino]-N,N-dimethylbenzene-1-sulfonamide]	> 50 µM
CCN[C@H]1CC[C@H](Nc2cc(Nc3ccc(S(=O)(=O)N(C)C)cc3)n3ncc(C(C)C)c3n2)CC1 [4-[(5-{[4-(ethylamino)cyclohexyl]amino}-3-(propan-2-yl)pyrazolo[1,5-a]pyrimidin-7-yl)amino]-N,N-dimethylbenzene-1-sulfonamide]	> 50 µM
Brc1cccc(-c2cc(NCc3ccncc3)n3nccc3n2)c1 [5-(3-bromophenyl)-N-(pyridin-4-ylmethyl)pyrazolo[1,5-a]pyrimidin-7-amine]	0.96 µM
CC(C)c1cnn2c(Nc3ccc(S(C)(=O)=O)cc3)cc(Cl)nc12 [5-chloro-N-(4-methanesulfonylphenyl)-3-(propan-2-yl)pyrazolo[1,5-a]pyrimidin-7-amine]	11 µM
CC(C)COc1cc(Nc2ccc(S(C)(=O)=O)cc2)n2ncc(C(C)C)c2n1 [N-(4-methanesulfonylphenyl)-5-(2-methylpropoxy)-3-(propan-2-yl)pyrazolo[1,5-a]pyrimidin-7-amine]	12 µM

The next lines start with the values.

IC50	Compound
50 µM	CC(C)COc1cc(Nc2ccc(S(=O)(=O)N(C)C)cc2)n2ncc(C(C)C)c2n1 [N,N-dimethyl-4-{[5-(2-methylpropoxy)-3-(propan-2-yl)pyrazolo[1,5-a]pyrimidin-7-yl]amino}benzene-1-sulfonamide]
28 µM	CC(C)c1cnn2c(Nc3ccc(S(=O)(=O)N(C)C)cc3)cc(O[C@H]3CC[C@H](N)CC3)nc12 [4-({5-[(4-aminocyclohexyl)oxy]-3-(propan-2-yl)pyrazolo[1,5-a]pyrimidin-7-yl}amino)-N,N-dimethylbenzene-1-sulfonamide]
8.7 µM	CN(C)S(=O)(=O)c1ccc(Nc2cc(N[C@H]3CC[C@H](N)CC3)nc3c(Br)cnn23)cc1Cl [4-({5-[(4-aminocyclohexyl)amino]-3-bromopyrazolo[1,5-a]pyrimidin-7-yl}amino)-2-chloro-N,N-dimethylbenzene-1-sulfonamide]
5.3 µM	N[C@H]1CC[C@H](Nc2cc(Nc3ccc(S(=O)(=O)c4ccccc4)cc3)n3ncc(Br)c3n2)CC1 [5-N-(4-aminocyclohexyl)-7-N-[4-(benzenesulfonyl)phenyl]-3-bromopyrazolo[1,5-a]pyrimidine-5,7-diamine]
5.1 µM	CN(C)S(=O)(=O)c1ccc(Nc2cc(N[C@H]3CC[C@H](N)CC3)nc3c(Cl)cnn23)cc1 [4-({5-[(4-aminocyclohexyl)amino]-3-chloropyrazolo[1,5-a]pyrimidin-7-yl}amino)-N,N-dimethylbenzene-1-sulfonamide]
3.1 µM	CS(=O)(=O)c1ccc(Nc2cc(Cl)nc3ccnn23)cc1 [5-chloro-N-(4-methanesulfonylphenyl)pyrazolo[1,5-a]pyrimidin-7-amine]
0.46 µM	CN(C)S(=O)(=O)c1ccc(Nc2cc(N[C@H]3CC[C@H](N)CC3)nc3c(C#N)cnn23)cc1 [4-({5-[(4-aminocyclohexyl)amino]-3-cyanopyrazolo[1,5-a]pyrimidin-7-yl}amino)-N,N-dimethylbenzene-1-sulfonamide]
